Assay results from patent publication US9771341B2, “Piperazine carbamates and methods of making and using same” (Abide Therapeutics, Inc., priority 2015, dated 2017).

What was measured:
Format in all cases: biochemical
MAGL = target: T1, MAGL (Mus musculus, UniProt O35678); experiment: In vitro competitive activity-based protein profiling (mouse), MAGL; conditions: for inhibition at 1 µM: mouse proteome, in vitro, read-out: % Inhibition at 1 μM MAGL; for IC50: mouse brain membrane fraction or cell lysates, 30 min preincubation at 37° C, FP-Rh probe
T1 construct: Proteomes (mouse brain membrane fraction or cell lysates); from tissue; host or cells: mouse brain membrane fraction (or unspecified cell lysates)
T1 sequence (O35678 1-303): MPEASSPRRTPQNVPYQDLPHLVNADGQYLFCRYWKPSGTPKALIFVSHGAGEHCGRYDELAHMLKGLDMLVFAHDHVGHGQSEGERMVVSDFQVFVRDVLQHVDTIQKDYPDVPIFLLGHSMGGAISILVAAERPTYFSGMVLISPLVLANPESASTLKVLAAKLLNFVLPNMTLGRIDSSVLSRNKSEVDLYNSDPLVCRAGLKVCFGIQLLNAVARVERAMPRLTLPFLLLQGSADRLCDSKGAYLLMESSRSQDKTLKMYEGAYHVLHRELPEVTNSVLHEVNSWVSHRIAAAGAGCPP
Procedure: (§1) In Vitro Competitive Activity-Based Protein Profiling (Mouse).
(§2) Proteomes (mouse brain membrane fraction or cell lysates) (50 μL, 1.0 mg/mL total protein concentration) were preincubated with varying concentrations of inhibitors at 37° C. After 30 min, FP-Rh (1.0 μL, 50 μM in DMSO) was added and the mixture was incubated for another 30 min at 37° C. Reactions were quenched with SDS loading buffer (50 μL-4×) and run on SDS-PAGE.

FAAH = target: T2, FAAH (Mus musculus, UniProt O08914); experiment: In vitro competitive activity-based protein profiling (mouse), FAAH; conditions: for inhibition at 1 µM: mouse proteome, in vitro; for IC50: mouse brain membrane fraction or cell lysates, 30 min preincubation at 37° C, FP-Rh probe
T2 construct: Proteomes (mouse brain membrane fraction or cell lysates); from tissue; host or cells: mouse brain membrane fraction (or unspecified cell lysates)
T2 sequence (O08914 1-579): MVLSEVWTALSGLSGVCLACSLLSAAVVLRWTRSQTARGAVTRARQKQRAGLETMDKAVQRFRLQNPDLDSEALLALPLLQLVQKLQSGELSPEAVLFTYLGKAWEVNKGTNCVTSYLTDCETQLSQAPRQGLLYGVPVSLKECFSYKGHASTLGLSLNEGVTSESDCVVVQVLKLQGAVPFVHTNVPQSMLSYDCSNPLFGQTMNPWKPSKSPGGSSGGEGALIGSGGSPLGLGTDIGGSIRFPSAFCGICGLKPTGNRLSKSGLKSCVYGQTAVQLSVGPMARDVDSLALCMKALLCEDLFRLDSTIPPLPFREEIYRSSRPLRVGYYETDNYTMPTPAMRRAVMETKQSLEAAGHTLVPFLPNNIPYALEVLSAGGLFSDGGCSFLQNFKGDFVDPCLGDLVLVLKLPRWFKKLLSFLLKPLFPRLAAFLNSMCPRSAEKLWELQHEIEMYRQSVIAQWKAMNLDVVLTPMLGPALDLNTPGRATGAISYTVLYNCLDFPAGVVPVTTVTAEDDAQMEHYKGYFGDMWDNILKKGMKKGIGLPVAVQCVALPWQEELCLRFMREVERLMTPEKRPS
Procedure: as §1
as §2, with “SDS-PAGE. Following gel imaging, serine hydrolase activity was determined by measuring fluorescent intensity of gel bands corresponding to MAGL, ABHD6 and FAAH using ImageJ 1.43u software.” for “SDS-PAGE.”

ABHD6 = target: T3, ABHD6 (Mus musculus, UniProt Q8R2Y0); experiment: In vitro competitive activity-based protein profiling (mouse), ABHD6; conditions: for inhibition at 1 µM: mouse proteome, in vitro, read-out: % Inhibition at 1 μM ABHD6; for IC50: mouse brain membrane fraction or cell lysates, 30 min preincubation at 37° C, FP-Rh probe
T3 construct: Proteomes (mouse brain membrane fraction or cell lysates); from tissue; host or cells: mouse brain membrane fraction (or unspecified cell lysates)
T3 sequence (Q8R2Y0 1-336): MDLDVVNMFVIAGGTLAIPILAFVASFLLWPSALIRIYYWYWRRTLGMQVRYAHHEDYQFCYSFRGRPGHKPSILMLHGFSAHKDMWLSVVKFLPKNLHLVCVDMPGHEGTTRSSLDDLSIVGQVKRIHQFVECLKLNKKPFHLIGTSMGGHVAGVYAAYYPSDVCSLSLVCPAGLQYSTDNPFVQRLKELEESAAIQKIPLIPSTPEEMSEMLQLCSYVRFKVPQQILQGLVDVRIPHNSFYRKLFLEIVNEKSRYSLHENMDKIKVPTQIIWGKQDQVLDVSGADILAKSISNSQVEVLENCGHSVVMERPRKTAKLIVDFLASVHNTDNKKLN
Procedure: as §1, §2

Structure (SMILES): CS(=O)(=O)N[C@@H]1CCN(c2cccc(C(F)(F)F)c2CN2CCN(C(=O)OC(C(F)(F)F)C(F)(F)F)CC2)C1 [Example 47, 1,1,1,3,3,3-hexafluoropropan-2-yl (R)-4-(2-(3-(methylsulfonamido)pyrrolidin-1-yl)-6-(trifluoromethyl)benzyl)piperazine-1-carboxylate]
- inhibition at 1 µM (MAGL): > 75%
- inhibition at 1 µM (FAAH): < 25%
- inhibition at 1 µM (ABHD6): < 25%

Structure (SMILES): NC(=O)C1CCN(c2cc(C(F)(F)F)ccc2CN2CCN(C(=O)OC(C(F)(F)F)C(F)(F)F)CC2)CC1 [Example 36, 1,1,1,3,3,3-hexafluoropropan-2-yl 4-(2-(4-carbamoylpiperidin-1-yl)-4-(trifluoromethyl)benzyl)piperazine-1-carboxylate]
- inhibition at 1 µM (MAGL): > 75%
- IC50 (MAGL): < 100 nM
- inhibition at 1 µM (FAAH): < 25%
- IC50 (FAAH): > 1000 nM
- inhibition at 1 µM (ABHD6): > 75%
- IC50 (ABHD6): 100 to 1000 nM

Structure (SMILES): O=C(OC(C(F)(F)F)C(F)(F)F)N1CCN(Cc2ccc(C(F)(F)F)c(N3CCC(CO)CC3)c2)CC1 [Example 82, 1,1,1,3,3,3-hexafluoropropan-2-yl 4-(3-(4-(hydroxymethyl)piperidin-1-yl)-4-(trifluoromethyl)benzyl)piperazine-1-carboxylate]
- inhibition at 1 µM (MAGL): > 75%
- IC50 (MAGL): < 100 nM
- inhibition at 1 µM (FAAH): < 25%
- IC50 (FAAH): > 1000 nM
- inhibition at 1 µM (ABHD6): > 75%
- IC50 (ABHD6): 100 to 1000 nM

Structure (SMILES): O=C(OC(C(F)(F)F)C(F)(F)F)N1CCN(Cc2cc(Cl)cc(CN3CCCC3)c2)CC1 [Example 29, 1,1,1,3,3,3-hexafluoropropan-2-yl 4-(3-chloro-5-(pyrrolidin-1-ylmethyl)benzyl)piperazine-1-carboxylate]
- inhibition at 1 µM (MAGL): > 75%
- IC50 (MAGL): 100 to 1000 nM
- inhibition at 1 µM (FAAH): < 25%
- IC50 (FAAH): > 1000 nM
- inhibition at 1 µM (ABHD6): < 25%
- IC50 (ABHD6): > 1000 nM

Structure (SMILES): O=C(OC(C(F)(F)F)C(F)(F)F)N1CCN(Cc2ccc(Cl)cc2N2CCC(C(=O)N3CCCC3)CC2)CC1 [Example 37, 1,1,1,3,3,3-hexafluoropropan-2-yl 4-(4-chloro-2-(4-(pyrrolidine-1-carbonyl)piperidin-1-yl)benzyl)piperazine-1-carboxylate]
- inhibition at 1 µM (MAGL): > 75%
- IC50 (MAGL): 100 to 1000 nM
- inhibition at 1 µM (FAAH): < 25%
- IC50 (FAAH): > 1000 nM
- inhibition at 1 µM (ABHD6): < 25%
- IC50 (ABHD6): > 1000 nM

Structure (SMILES): O=C(OC(C(F)(F)F)C(F)(F)F)N1CCN(Cc2cc(N3CCC(CO)C3)cc(C(F)(F)F)c2)CC1 (stereo not drawn) [Example 90, 1,1,1,3,3,3-hexafluoropropan-2-yl 4-(3-(3-(hydroxymethyl)pyrrolidin-1-yl)-5-(trifluoromethyl)benzyl)piperazine-1-carboxylate]
- inhibition at 1 µM (MAGL): > 75%
- IC50 (MAGL): < 100 nM
- inhibition at 1 µM (FAAH): < 25%
- IC50 (FAAH): > 1000 nM
- inhibition at 1 µM (ABHD6): > 75%
- IC50 (ABHD6): 100 to 1000 nM

Structure (SMILES): Cc1c(CN2CCN(C(=O)OC(C(F)(F)F)C(F)(F)F)CC2)cccc1N1CCC(NS(C)(=O)=O)CC1 [Example 52, 1,1,1,3,3,3-hexafluoropropan-2-yl 4-(2-methyl-3-(4-(methylsulfonamido)piperidin-1-yl)benzyl)piperazine-1-carboxylate]
- inhibition at 1 µM (MAGL): > 75%
- IC50 (MAGL): < 100 nM
- inhibition at 1 µM (FAAH): < 25%
- IC50 (FAAH): > 1000 nM
- inhibition at 1 µM (ABHD6): > 75%
- IC50 (ABHD6): 100 to 1000 nM

Structure (SMILES): Cc1c(CN2CCC(NS(C)(=O)=O)CC2)cccc1CN1CCN(C(=O)OC(C(F)(F)F)C(F)(F)F)CC1 [Example 10, 1,1,1,3,3,3-hexafluoropropan-2-yl 4-(2-methyl-3-((4-(methylsulfonamido)piperidin-1-yl)methyl)benzyl)piperazine-1-carboxylate]
- inhibition at 1 µM (MAGL): > 75%
- IC50 (MAGL): < 100 nM
- inhibition at 1 µM (FAAH): < 25%
- IC50 (FAAH): > 1000 nM
- inhibition at 1 µM (ABHD6): > 75%
- IC50 (ABHD6): 100 to 1000 nM

Structure (SMILES): Cc1c(CN2CCN(C(=O)OC(C(F)(F)F)C(F)(F)F)CC2)cccc1CN1CCC(F)(F)CC1 [Example 12, 1,1,1,3,3,3-hexafluoropropan-2-yl 4-(3-((4,4-difluoropiperidin-1-yl)methyl)-2-methylbenzyl)piperazine-1-carboxylate]
- inhibition at 1 µM (MAGL): > 75%
- IC50 (MAGL): < 100 nM
- inhibition at 1 µM (FAAH): < 25%
- IC50 (FAAH): > 1000 nM
- inhibition at 1 µM (ABHD6): > 75%
- IC50 (ABHD6): 100 to 1000 nM

Structure (SMILES): CC(=O)NC1CCN(Cc2cccc(CN3CCN(C(=O)OC(C(F)(F)F)C(F)(F)F)CC3)c2C)CC1 [Example 11, 1,1,1,3,3,3-hexafluoropropan-2-yl 4-(3-((4-acetamidopiperidin-1-yl)methyl)-2-methylbenzyl)piperazine-1-carboxylate]
- inhibition at 1 µM (MAGL): > 75%
- IC50 (MAGL): 100 to 1000 nM
- inhibition at 1 µM (FAAH): < 25%
- IC50 (FAAH): > 1000 nM
- inhibition at 1 µM (ABHD6): 25 to 75%
- IC50 (ABHD6): 100 to 1000 nM

Structure (SMILES): O=C(OC(C(F)(F)F)C(F)(F)F)N1CCN(Cc2ccc(C(F)(F)F)cc2N2CCC(C(=O)N3CCCC3)CC2)CC1 [Example 68, 1,1,1,3,3,3-hexafluoropropan-2-yl 4-(2-(4-(pyrrolidine-1-carbonyl)piperidin-1-yl)-4-(trifluoromethyl)benzyl)piperazine-1-carboxylate]
- inhibition at 1 µM (MAGL): > 75%
- IC50 (MAGL): 100 to 1000 nM
- inhibition at 1 µM (FAAH): < 25%
- IC50 (FAAH): > 1000 nM
- inhibition at 1 µM (ABHD6): < 25%
- IC50 (ABHD6): > 1000 nM

Structure (SMILES): O=C(O)C(=O)c1cc(CN2CCN(C(=O)OC(C(F)(F)F)C(F)(F)F)CC2)cc(C(F)(F)F)c1 [Example 93, 2-(3-((4-(((1,1,1,3,3,3-hexafluoropropan-2-yl)oxy)carbonyl)piperazin-1-yl)methyl)-5-(trifluoromethyl)phenyl)-2-oxoacetic acid]
- inhibition at 1 µM (MAGL): > 75%
- IC50 (MAGL): < 100 nM
- inhibition at 1 µM (FAAH): < 25%
- IC50 (FAAH): > 1000 nM
- inhibition at 1 µM (ABHD6): > 75%
- IC50 (ABHD6): 100 to 1000 nM

Structure (SMILES): O=C(O)C(=O)c1cc(C(F)(F)F)ccc1CN1CCN(C(=O)OC(C(F)(F)F)C(F)(F)F)CC1 [Example 76, 2-(2-((4-(((1,1,1,3,3,3-hexafluoropropan-2-yl)oxy)carbonyl)piperazin-1-yl)methyl)-5-(trifluoromethyl)phenyl)-2-oxoacetic acid]
- inhibition at 1 µM (MAGL): > 75%
- IC50 (MAGL): < 100 nM
- inhibition at 1 µM (FAAH): < 25%
- IC50 (FAAH): > 1000 nM
- inhibition at 1 µM (ABHD6): > 75%
- IC50 (ABHD6): > 1000 nM

Structure (SMILES): CC(=O)N[C@@H]1CCN(Cc2cccc(CN3CCN(C(=O)OC(C(F)(F)F)C(F)(F)F)CC3)c2C)C1 [Example 17, 1,1,1,3,3,3-hexafluoropropan-2-yl (R)-4-(3-((3-acetamidopyrrolidin-1-yl)methyl)-2-methylbenzyl)piperazine-1-carboxylate]
- inhibition at 1 µM (MAGL): > 75%
- IC50 (MAGL): 100 to 1000 nM
- inhibition at 1 µM (FAAH): < 25%
- IC50 (FAAH): > 1000 nM
- inhibition at 1 µM (ABHD6): > 75%
- IC50 (ABHD6): 100 to 1000 nM

Structure (SMILES): O=C(O)C1CCN(c2cc(CN3CCN(C(=O)OC(C(F)(F)F)C(F)(F)F)CC3)ccc2C(F)(F)F)C1 (stereo not drawn) [Example 80, 1-(5-((4-(((1,1,1,3,3,3-hexafluoropropan-2-yl)oxy)carbonyl)piperazin-1-yl)methyl)-2-(trifluoromethyl)phenyl)pyrrolidine-3-carboxylic acid]
- inhibition at 1 µM (MAGL): > 75%
- IC50 (MAGL): < 100 nM
- inhibition at 1 µM (FAAH): < 25%
- IC50 (FAAH): > 1000 nM
- inhibition at 1 µM (ABHD6): 25 to 75%
- IC50 (ABHD6): 100 to 1000 nM
